Experimental data published in patent US20260262643A1, “HERBICIDAL BENZOXAZINES” (FMC CORPORATION, priority 2022, published 2026).

Key:
[1] = system: wheat; assay: Test C preemergence; format: in vivo, Triticum aestivum; details: 0 to 100 scale (0 no effect, 100 complete control)
Outline: (§1)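 Visual injury ratings on a 0–100 scale (100 = complete control) were made against untreated controls 10 days after treatment in the greenhouse. Compounds, formulated with surfactant in non-phytotoxic solvent, were sprayed on soil preemergence or onto one- to two-leaf plants 2–10 cm tall postemergence.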

[2] = system: corn; assay: Test C preemergence; format: in vivo, Zea mays; details: 0 to 100 scale (0 no effect, 100 complete control)
Outline: as §1

[3] = system: pigweed, palmer; assay: Test C postemergence; format: in vivo, Amaranthus palmeri; details: 10 days
Outline: as §1

[4] = system: rice; assay: Test D flooded paddy test; format: in vivo, Oryza sativa; details: 250 g ai/ha, applied to paddy water, visual rating after 13 to 14 days, scale 0 to 100 (0 no effect, 100 complete control)
Outline: (§2)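 Compounds go straight into paddy water over 2-leaf plants in pots flooded to 3 cm. Greenhouse holding lasts 13 to 14 days. Injury is scored by eye against controls from 0 (none) to 100 (complete control).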

[5] = system: barnyardgrass; assay: Test C preemergence; format: in vivo, Echinochloa crusgalli; details: 0 to 100 scale (0 no effect, 100 complete control)
Outline: as §1

[6] = system: oat, wild; assay: Test C postemergence; format: in vivo, Avena fatua; details: 10 days
Outline: as §1

[7] = system: soybean; assay: Test C postemergence; format: in vivo, Glycine max; details: 10 days
Outline: as §1

[8] = system: horseweed; assay: Test C postemergence; format: in vivo, Erigeron canadensis; details: 10 days
Outline: as §1

[9] = system: oat, wild; assay: Test C preemergence; format: in vivo, Avena fatua; details: 0 to 100 scale (0 no effect, 100 complete control)
Outline: as §1

[10] = system: kochia; assay: Test C postemergence; format: in vivo, Bassia scoparia; details: 10 days
Outline: as §1

[11] = system: green foxtail; assay: Test C postemergence; format: in vivo, Setaria viridis; details: 10 days
Outline: as §1

[12] = system: blackgrass; assay: Test C postemergence; format: in vivo, Alopecurus myosuroides; details: 10 days
Outline: as §1

[13] = system: galium; assay: Test C postemergence; format: in vivo, Galium aparine; details: 10 days
Outline: as §1

[14] = system: kochia; assay: Test C preemergence; format: in vivo, Bassia scoparia; details: 0 to 100 scale (0 no effect, 100 complete control)
Outline: as §1

[15] = system: green foxtail; assay: Test C preemergence; format: in vivo, Setaria viridis; details: 0 to 100 scale (0 no effect, 100 complete control)
Outline: as §1

[16] = system: ragweed; assay: Test C preemergence; format: in vivo, Ambrosia artemisiifolia; details: 0 to 100 scale (0 no effect, 100 complete control)
Outline: as §1

[17] = system: barnyardgrass; assay: Test C postemergence; format: in vivo, Echinochloa crusgalli; details: 10 days
Outline: as §1

[18] = system: ducksalad; assay: Test D flooded paddy test; format: in vivo, Heteranthera limosa; details: 250 g ai/ha, applied to paddy water, visual rating after 13 to 14 days, scale 0 to 100 (0 no effect, 100 complete control)
Outline: as §2

[19] = system: barnyardgrass; assay: Test D flooded paddy test; format: in vivo, Echinochloa crus-galli; details: 250 g ai/ha, applied to paddy water, visual rating after 13 to 14 days, scale 0 to 100 (0 no effect, 100 complete control)
Outline: as §2

[20] = system: sedge, umbrella; assay: Test D flooded paddy test; format: in vivo, Cyperus difformis; details: 250 g ai/ha, applied to paddy water, visual rating after 13 to 14 days, scale 0 to 100 (0 no effect, 100 complete control)
Outline: as §2

[21] = system: wheat; assay: Test C postemergence; format: in vivo, Triticum aestivum; details: 10 days
Outline: as §1

[22] = system: ryegrass, Italian; assay: Test C postemergence; format: in vivo, Lolium multiflorum; details: 10 days
Outline: as §1

[23] = system: pigweed, palmer; assay: Test C preemergence; format: in vivo, Amaranthus palmeri; details: 0 to 100 scale (0 no effect, 100 complete control)
Outline: as §1

[24] = system: blackgrass; assay: Test C preemergence; format: in vivo, Alopecurus myosuroides; details: 0 to 100 scale (0 no effect, 100 complete control)
Outline: as §1

[25] = system: corn; assay: Test C postemergence; format: in vivo, Zea mays; details: 10 days
Outline: as §1

[26] = system: ryegrass, Italian; assay: Test C preemergence; format: in vivo, Lolium multiflorum; details: 0 to 100 scale (0 no effect, 100 complete control)
Outline: as §1

[27] = system: soybean; assay: Test C preemergence; format: in vivo, Glycine max; details: 0 to 100 scale (0 no effect, 100 complete control)
Outline: as §1

[28] = system: ragweed; assay: Test C postemergence; format: in vivo, Ambrosia artemisiifolia; details: 10 days
Outline: as §1

[29] = Preemergence, 500 g ai/ha, visual rating after 10 days
[30] = Test C, preemergence, 125 g ai/ha
[31] = 125 g ai/ha, postemergence, 0 to 100 scale, 0 no effect, 100 complete control
[32] = Postemergence, 500 g ai/ha, visual 0 to 100 scale (0 no effect, 100 complete control)

CCc1c(F)cc(-n2cnc(C(C)C)n2)cc1C(=O)N1C[C@H](C)Oc2c(Cl)cccc21 [Compound 152]
Plant response rating, Wheat [1, 29]: 40 | Wheat plant response rating [1, 30]: 20 | Plant response rating, Corn [2, 29]: 50 | Corn plant response rating [2, 30]: 30 | Plant response rating, Pigweed, Palmer [3, 31]: 80 | Plant response rating, Pigweed, Palmer [3, 32]: 90 | Plant response rating, Rice (Flood) [4]: 0 | Barnyardgrass plant response rating ([5]; 125 g ai/ha, preemergence): 70 | Plant response rating, Barnyardgrass [5, 29]: 90 | Plant response rating, Oat, Wild [6, 31]: 0 | Plant response rating, Oat, Wild [6, 32]: 30 | Plant response rating, Soybean [7, 31]: 100 | Plant response rating, Soybean [7, 32]: 100 | Plant response rating, Horseweed [8, 31]: 0 | Plant response rating, Horseweed [8, 32]: 0 | Plant response rating, Oat, Wild [9, 29]: 70 | Oat, Wild plant response rating [9, 30]: 60 | Plant response rating, Kochia [10, 31]: 80 | Plant response rating, Kochia [10, 32]: 80 | Plant response rating, Foxtail, Green [11, 31]: 40 | Plant response rating, Foxtail, Green [11, 32]: 90 | Plant response rating, Blackgrass [12, 31]: 50 | Plant response rating, Blackgrass [12, 32]: 70 | Plant response rating, Galium [13, 31]: 100 | Plant response rating, Galium [13, 32]: 100 | Plant response rating, Kochia [14, 29]: 90 | Kochia plant response rating [14, 30]: 40 | Plant response rating, Foxtail, Green [15, 29]: 100 | Foxtail, Green plant response rating [15, 30]: 100 | Plant response rating, Ragweed [16, 29]: 0 | Ragweed plant response rating [16, 30]: 0 | Plant response rating, Barnyardgrass [17, 31]: 60 | Plant response rating, Barnyardgrass [17, 32]: 90 | Plant response rating, Ducksalad (Flood) [18]: 0 | Plant response rating, Barnyardgrass (Flood) [19]: 0 | Plant response rating, Sedge, Umbrella (Flood) [20]: 0 | Plant response rating, Wheat [21, 31]: 20 | Plant response rating, Wheat [21, 32]: 20 | Plant response rating, Ryegrass, Italian [22, 31]: 30 | Plant response rating, Ryegrass, Italian [22, 32]: 60 | Plant response rating, Pigweed, Palmer [23, 29]: 90 | Pigweed, Palmer plant response rating [23, 30]: 90 | Plant response rating, Blackgrass [24, 29]: 60 | Blackgrass plant response rating [24, 30]: 50 | Plant response rating, Corn [25, 31]: 40 | Plant response rating, Corn [25, 32]: 70 | Plant response rating, Ryegrass, Italian [26, 29]: 90 | Ryegrass, Italian plant response rating [26, 30]: 70 | Plant response rating, Soybean [27, 29]: 70 | Soybean plant response rating [27, 30]: 50 | Plant response rating, Ragweed [28, 31]: 40 | Plant response rating, Ragweed [28, 32]: 60
